A word on the solubility: it is the concentration that dissolves in the medium under given conditions. High values mean much dissolved substance, low ones little dissolved substance. In general, pKa refers to the negative logarithm of the acid dissociation constant. In general, Papp refers to the rate of passage across a membrane or cell layer, normalised by area and donor concentration. As usually defined, the fraction unbound is free concentration divided by total concentration. A higher fraction unbound goes with much free substance. In general, IC50 refers to the point on the concentration scale where inhibition reaches its midpoint. Read a low IC50 as inhibition by little substance. What is called half-life is the time needed for the level to fall by half in the phase considered. Read a low half-life as fast loss.

In data set [1] the target is P-gp (Homo sapiens, UniProt P08183). As to the kind of experiment: P-gp inhibition, intracellular accumulation of Rh123 in LS180 cells. Format: cell-based.
Chain of P-gp (Homo sapiens, UniProt P08183) (P08183 whole entry): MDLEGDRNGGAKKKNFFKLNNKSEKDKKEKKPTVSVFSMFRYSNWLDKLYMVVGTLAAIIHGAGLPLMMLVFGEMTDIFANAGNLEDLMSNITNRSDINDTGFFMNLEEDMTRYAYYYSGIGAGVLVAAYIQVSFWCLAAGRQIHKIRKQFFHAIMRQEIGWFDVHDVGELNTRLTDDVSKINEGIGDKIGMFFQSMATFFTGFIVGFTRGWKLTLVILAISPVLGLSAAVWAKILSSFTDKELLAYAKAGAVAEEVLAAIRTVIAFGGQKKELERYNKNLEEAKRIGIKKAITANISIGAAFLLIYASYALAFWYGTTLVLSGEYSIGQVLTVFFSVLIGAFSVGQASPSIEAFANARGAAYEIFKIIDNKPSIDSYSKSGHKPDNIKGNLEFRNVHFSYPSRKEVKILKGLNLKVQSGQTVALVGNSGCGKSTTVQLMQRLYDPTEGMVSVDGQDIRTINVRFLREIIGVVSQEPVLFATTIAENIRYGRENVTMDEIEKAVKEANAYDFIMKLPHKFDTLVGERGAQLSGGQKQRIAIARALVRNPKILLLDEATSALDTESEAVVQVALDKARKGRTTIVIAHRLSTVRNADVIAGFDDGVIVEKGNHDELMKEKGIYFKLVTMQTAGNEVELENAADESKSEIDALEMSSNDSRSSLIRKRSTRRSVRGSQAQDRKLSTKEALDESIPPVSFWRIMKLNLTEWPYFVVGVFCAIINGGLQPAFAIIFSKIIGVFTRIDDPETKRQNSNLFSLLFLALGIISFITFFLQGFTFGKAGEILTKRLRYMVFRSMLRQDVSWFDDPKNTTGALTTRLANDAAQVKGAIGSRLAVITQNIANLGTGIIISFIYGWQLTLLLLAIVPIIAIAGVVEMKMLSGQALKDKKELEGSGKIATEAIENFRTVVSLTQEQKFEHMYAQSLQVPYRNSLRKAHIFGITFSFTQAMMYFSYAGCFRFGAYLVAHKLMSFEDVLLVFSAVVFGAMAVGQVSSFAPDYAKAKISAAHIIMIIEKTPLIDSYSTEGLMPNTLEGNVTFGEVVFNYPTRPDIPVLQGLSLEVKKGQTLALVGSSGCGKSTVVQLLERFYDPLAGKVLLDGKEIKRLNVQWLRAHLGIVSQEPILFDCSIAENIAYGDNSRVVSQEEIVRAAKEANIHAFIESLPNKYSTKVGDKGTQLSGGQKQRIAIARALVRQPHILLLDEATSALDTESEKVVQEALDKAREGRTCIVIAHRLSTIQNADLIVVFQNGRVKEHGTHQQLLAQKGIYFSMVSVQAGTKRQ
The conditions of data set [2]: standards: high / moderate / low aqueous solubility; cited from earlier work.
Data set [3] can be described thus: Equilibrium solubility in biorelevant media, shake-flask method. The data set is classed as physicochemical. The settings on record: water, 37 °C, thermodynamic from solid.
A short description of data set [4]: pKa, UV-metric method. As to conditions: Britton-Robinson buffer, pH 1.81. The data set is classed as physicochemical.
Data set [5] is described as follows: Chemical stability in SGF and SIF. The data set is classed as physicochemical. As to conditions: 37 °C, 10 µM.
Data set [6] in a line: GI permeability, PAMPA. Format: in vitro ADME. As to conditions: pH 7.4. Background: In PAMPA a lipid-coated filter parts donor from acceptor wells.
The subject of data set [7] is P-gp. Description: P-gp induction, intracellular accumulation of Rh123 in LS180 cells. The data set is classed as cell-based.
Data set [8] in a line: Plasma stability in rat plasma. The data set is classed as in vitro ADME. As to conditions: 5 µM, 2 h, 37°C.
The nature of data set [9]: Plasma protein binding, rapid equilibrium dialysis. Format: in vitro ADME. The settings on record: rat, pH 7.4. (In equilibrium dialysis free small molecules cross a membrane that holds back macromolecules.)
Data set [10] is described as follows: RBC partitioning in rat blood and plasma. Format: in vitro ADME. As to conditions: fresh whole blood and reference plasma.
A short description of data set [11]: Metabolic stability in liver microsomes. The data set is classed as in vitro ADME, human, monkey, dog, rat, mouse. The settings on record: MLM, RLM, DLM, MkLM, HLM; 1 mg/mL protein, 5 µM, 30 min. Background: Liver microsomes are a subcellular fraction often used to study metabolism.
The target in data set [12] is T1, CYP2C8 (Homo sapiens, UniProt P10632).
T1 sequence (P10632 1-490): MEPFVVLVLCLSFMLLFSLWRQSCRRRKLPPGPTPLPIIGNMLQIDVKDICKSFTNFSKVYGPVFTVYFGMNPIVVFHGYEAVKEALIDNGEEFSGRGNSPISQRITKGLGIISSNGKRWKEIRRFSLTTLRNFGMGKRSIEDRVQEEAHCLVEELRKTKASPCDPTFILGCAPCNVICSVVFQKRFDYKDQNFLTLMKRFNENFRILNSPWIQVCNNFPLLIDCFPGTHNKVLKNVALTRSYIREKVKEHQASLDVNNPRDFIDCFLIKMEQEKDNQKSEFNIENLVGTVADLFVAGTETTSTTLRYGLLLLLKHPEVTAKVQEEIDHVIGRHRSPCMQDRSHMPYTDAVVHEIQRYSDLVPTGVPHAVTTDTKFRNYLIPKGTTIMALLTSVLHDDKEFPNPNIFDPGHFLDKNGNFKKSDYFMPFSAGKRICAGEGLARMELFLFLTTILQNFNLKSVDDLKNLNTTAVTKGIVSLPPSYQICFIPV
Description: CYP inhibition in HLM, CYP2C8. The settings on record: IC50 (μM), amodiaquine N-deethylation. The data set is classed as biochemical.

Data set [13] in a line: Pharmacokinetics and oral bioavailability after oral and IV administration. Format: in vivo. As to conditions: rat.
Data set [14] is described as follows: Organ distribution after IV administration. The settings on record: rat, IV 10 mg/kg, 5 min after dosing. Format: in vivo.
Data set [15] is described as follows: Intrabrain distribution after IV administration. The data set is classed as in vivo. As to conditions: rat, IV 10 mg/kg, 5 min after dosing.
The subject of data set [16] is CYP2D6. Description: Western blot of liver CYP2D6 protein expression. The data set is classed as in vivo. The settings on record: rat liver, crocetin with donepezil compared to only donepezil.
Data set [17] concerns CYP3A4. As to the kind of experiment: Western blot of liver CYP3A4 protein expression. As to conditions: rat liver, crocetin with galantamine compared to only galantamine. Format: in vivo.
Data set [18] relates to Caco-2 barrier. As to conditions: ref 50 (Lautenschlager et al.); cited from earlier work.
The conditions of data set [19]: systemic circulation after oral administration of crocin; cited from earlier work.
For data set [20], the target named is CYP2D6 (Homo sapiens, UniProt P10635). As to the kind of experiment: CYP inhibition in HLM, CYP2D6. As to conditions: IC50 (μM), dextromethorphan O-demethylation.
Chain of CYP2D6 (Homo sapiens, UniProt P10635) (P10635 whole entry): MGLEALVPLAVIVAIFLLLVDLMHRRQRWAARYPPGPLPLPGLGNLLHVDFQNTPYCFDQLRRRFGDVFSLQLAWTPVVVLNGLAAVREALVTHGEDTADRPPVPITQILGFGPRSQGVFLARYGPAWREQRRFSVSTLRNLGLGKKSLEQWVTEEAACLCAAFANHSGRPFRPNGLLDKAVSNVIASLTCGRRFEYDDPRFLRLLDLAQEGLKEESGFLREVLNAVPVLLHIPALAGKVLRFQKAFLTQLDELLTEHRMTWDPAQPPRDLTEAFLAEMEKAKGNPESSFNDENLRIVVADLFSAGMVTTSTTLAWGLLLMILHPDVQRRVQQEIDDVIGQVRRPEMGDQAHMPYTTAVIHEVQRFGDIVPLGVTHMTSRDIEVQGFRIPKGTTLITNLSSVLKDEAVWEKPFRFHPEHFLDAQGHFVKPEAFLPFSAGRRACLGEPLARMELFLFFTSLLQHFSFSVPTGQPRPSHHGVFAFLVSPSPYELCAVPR
[21] abbreviates: female, Wistar, plasma, other: oral and intravenous.

In brackets after ≈: the same amount, converted by molar mass.

Take `O[C@@H](COc1cccc2ncccc12)CN1CCN([C@@H]2c3ccccc3[C@@H]3[C@H](c4ccccc42)C3(F)F)CC1` [zosuquidar, reference compound]: the “P-gp inhibition (increase in intracellular accumulation of Rh123)” value in data set [1] (standard, 10 µM) was “significant inhibition of P-gp”.

Turning to `CCCC1O[C@@H]2C[C@H]3[C@@H]4CCC5=CC(=O)C=C[C@]5(C)[C@H]4[C@@H](O)C[C@]3(C)[C@]2(C(=O)CO)O1` (stereo partly drawn) [budesonide], the “aqueous solubility (category of the standard)” value in data set [2] is 10 to 100 µg/mL.

Take `COc1ccc(CCN2CCC(Nc3nc4ccccc4n3Cc3ccc(F)cc3)CC2)cc1` [astemizole]: in data set [2], the “aqueous solubility (category of the standard)” value was less than 10 µg/mL.

The compound `CC(/C=C/C=C(\C)C(=O)O)=C\C=C\C=C(C)\C=C\C=C(/C)C(=O)O` [crocetin] gave a solubility at 1 h in data set [3] of 0.6 µg/mL (≈ 1.83 µM). The compound also registered a pKa in data set [4] of 5.35. Besides, the “intact (chemical stability)” value in data set [5] (SGF (pH 1.2), 2 h) amounted to 72%. In addition, the “intact (chemical stability)” value in data set [5] (SIF (pH 6.8), 4 h) is recorded as 68%. In data set [6], this compound showed an apparent permeability coefficient (Papp) at 5 h, 5 μM of 3.89 ×10⁻⁶ cm/s. Further, in data set [7] (Rh123, 25–50 μM), the P-gp induction was 22–24%. The P-gp inhibitory activity result in data set [1] (Rh123, 1 to 50 μM) is listed as “no marked P-gp inhibitory activity”. Further, the degradation in plasma in data set [8] is listed as less than 5%. The compound also had an unbound share (fraction unbound) at 4 h, 5 µM in data set [9] of 0.03. Further, in [10], the blood plasma ratio at 0 min, 1000 nM was determined as 0.36 ± 0.01 and the blood plasma ratio at 60 min, 1000 nM came to 0.39 ± 0.04. Also, the “remaining intact in liver microsomes” value in data set [11] is greater than 83%. In addition, 35.3 µM corresponded to half-maximal inhibition in data set [12] (IC50). In addition, in data set [13] (setting [21]), the clearance is no more than 16.7 mL/min/kg and the half-life was greater than 120 min. In [13] (oral 20 mg/kg), this compound had a maximum plasma concentration of 23 µM. Moreover, the “order of concentrations in organs” value in data set [14] is listed as “liver > lungs > heart > kidney > spleen > brain”. Further, in [15], the “order of concentrations in brain parts” value was “cortex > cerebellum > hippocampus”. Further, the “CYP2D6 protein expression (down-regulation)” value in data set [16] was 0.73 fold. Moreover, in data set [17], the “CYP3A4 protein expression (down-regulation)” value was found to be 0.61 fold. The Papp in [18] is listed as 2.6 ± 0.6 × 10^–5 cm/s. For the same compound, the “exposure of crocetin relative to crocin” value in data set [19] is reported as 56–81 fold. The same compound yielded an IC50 in [20] of 20.4 µM.

With `CO[C@H]1/C=C/O[C@@]2(C)Oc3c(C)c(O)c4c(O)c(c(/C=N/N5CCN(C)CC5)c(O)c4c3C2=O)NC(=O)/C(C)=C\C=C\[C@H](C)[C@H](O)[C@@H](C)[C@@H](O)[C@@H](C)[C@H](OC(C)=O)[C@@H]1C` [rifampicin, reference compound], the “P-gp induction (decrease in intracellular accumulation of Rh123)” value in [7] (standard, 10 µM) is on record as “significant induction of P-gp”.

The values above are taken from paper PMC11097163 (ACS Omega, 2024).
